The test system of one data set is myocardial tissue. The experiment in a line: Fluorescence intensity in myocardial tissue 15 minutes after injection of fluorescently-labeled CTP variants. It counts as in vivo. To be noted: mice; for fluorescence intensity in myocardial tissue compared to CTP: FIG. 6B. Here is the method: Additionally, fluorescently-labeled CTP variants (CTP, CTP-B, H4A, P2A) or fluorescently-labeled random peptide sequence (RAN) were injected into mice and fluorescence intensity was measured in fixed myocardial tissue. Mice were injected with peptides, and, 15 minutes after injection, heart tissue was dissected, cryosectioned, stained, and analyzed for fluorescence intensity.

The subject of the next data set is H9C2 cells and MEFs. The class given is cell-based. To be noted: compared to full-length peptide and DMSO control; FIG. 2E. The protocol:
(§1) FIGS. 2A-2E are a series of bar graphs that show the transduction efficiencies and viability of various cell types incubated with Cy5.5 labeled cardiac-specific targeting peptide variants. […] CTP (Full Length): NH2-APWHLSSQYSRT-COOH (SEQ ID NO: 1); CTP-A: NH2-APWHLS-COOH (SEQ ID NO: 24); CTP-B: NH2-SQYSRT-COOH (CTP6aa; SEQ ID NO: 5); cyclic: cyclized version of the indicated peptide; CTP-Random: random, linear, 12-amino acid peptide (RAN: NH2-STLMKFCYVEQN-COOH ((SEQ ID NO: 26)); DMSO: Dimethyl sulfoxide.
(§2) Solid-phase peptide synthesis were used to synthesize the full-length form (NH2-APWHLSSQYSRT-COOH (SEQ ID NO: 1)), as well as an N-terminus 6 amino acid called CTP-A (NH2-APWHLS-COOH (SEQ ID NO: 24)), or as CTP6aa (NH2-SQYSRT-COOH (SEQ ID NO: 5)) peptides. Full length and CTP6aa were also synthesized in a cyclic forms. A random, linear, 12-amino acid long peptide (RAN: NH2-STLMKFCYVEQN-COOH (SEQ ID NO: 26)) was also synthesized to serve as control. All peptides were fluorescently labeled with Cyanine5.5 (Cy5.5). Isolated, beating neonatal mouse cardiomyocytes (CMC) were incubated with 10 μM of the peptides at 37° C. for 30 minutes, washed extensively with PBS and confocal microscopy performed. […]

Data set [1] has as its system H9C2 cells. The data set is described as follows: Fluorescence activated cell sorting of H9C2 cells after 30 min incubation with 10 uM peptide (median Cy5.5). The class given is cell-based, rat. To be noted: for Corrected Median Cy5.5 / Raw Median Cy5.5: H9C2 cells, 30 min incubation, 10 uM peptide, single replicates; for Corrected Median Cy5.5: corrected for peptide fluorescence; for Average Correction: average of corrected median Cy5.5, H9C2 cells, FIG. 1C. Here is the method: (§3) Variants of SEQ ID NO: 1 in which every amino acid was systematically mutated to alanine were synthesized in the University of Pittsburgh Peptide Synthesis Facility. Each variant was conjugated to the Cyanine5.5 fluorescent dye (Cy5.5). The rat cardiomyocyte cell line H9C2 (ATCC, catalogue #: CRL-1446) was incubated for 30 minutes at 37° C. with Dimethyl sulfoxide (DMSO) as a control, or the alanine peptide variants. Cells were then washed 3 times with PBS, trypsinized and resuspended, stained for live/dead cells, and then FACS sorted for Cy5.5 positive cells.

The test system of data set [2] is H9C2 cells, MEF cells, 3T3 cells. The experiment in a line: Transduction of cell lines by Cy5.5 labeled N- and C-terminal CTP variants (FACS). It counts as cell-based. To be noted: across all three cell lines; FIGS. 2A-2D. The protocol:
as §1, §2

For data set [3], the system named is H9C2 cells. The experiment in a line: Alanine scan: percentage of Cy5.5 positive H9C2 cells by FACS. The class given is cell-based, rat. As to conditions: percentage of Cy5.5 positive H9C2 cells normalized to non-mutated peptide (SEQ ID NO: 1); Cy5.5-conjugated peptides, 30 minutes at 37° C. Here is the method:
as §3
The percentage of Cy5.5 positive H9C2 cells, normalized to the non-mutated peptide (SEQ ID NO: 1), for each peptide variant is summarized in Table 2 below.
On the technique in general: Flow cytometry measures light scatter and fluorescence of single cells or particles in a stream.

Where no end group is shown, it is not given here.

For the substance “SQYSRT (Description of Artificial Sequence: Cardiac Targeting Peptide (CTP-B)) [linear six C-terminal amino acid cardiac-specific targeting peptide]”, the “uptake compared to random peptide sequence and CTP” value in the data set on myocardial tissue is on record as “superior uptake”. Further, in the data set with myocardial tissue, the “fluorescence intensity in myocardial tissue compared to CTP” value is reported as “significantly greater”. Moreover, in the data set with H9C2 cells and MEFs, the cell viability entry is given as “did not alter cell viability”. Moreover, the “Corrected Median Cy5.5” value in the data set with H9C2 cells [1] (listed as CTP-B_001) is given as 5663.7; with H9C2 cells [1] (listed as CTP-B_002) it was 6469.2; with H9C2 cells [1] (listed as CTP-B_003) it was 6240.8. Besides, the “Raw Median Cy5.5” value in the data set with H9C2 cells [1] (listed as CTP-B_001) came out at 4711; with H9C2 cells [1] (listed as CTP-B_002) it was 5381; with H9C2 cells [1] (listed as CTP-B_003) it was 5191. Besides, the “Average Correction” value in the data set with H9C2 cells [1] was 6124.6. Also, the “transduction compared to the full-length peptide” value in data set [2] is on record as “at least as well as the full-length peptide”.
As to “AAWHLSSQYSRT (also: Cy5.5 conjugate, site not given here) [P2A, alanine variant of CTP, Cy5.5 conjugated]”, in the data set on myocardial tissue, the “fluorescence intensity in myocardial tissue compared to CTP” value was “significantly greater”. The “Corrected Median Cy5.5” value in the data set with H9C2 cells [1] (listed as P2A_001) is recorded as 9901.8; with H9C2 cells [1] (listed as P2A_002), 9298.9; in the data set on H9C2 cells [1] (listed as P2A_003), 9488.4. Further, the “Raw Median Cy5.5” value worked out at 9449 with H9C2 cells [1] (listed as P2A_001), 8834 in the data set on H9C2 cells [1] (listed as P2A_002) and 9014 in the data set on H9C2 cells [1] (listed as P2A_003). The “Average Correction” value in the data set with H9C2 cells [1] turned out to be 9535.0. The “% transduction of H9C2 Cells” value with H9C2 cells [3] turned out to be 59.15%.
“APWHLSAQYSRT (also: Cy5.5 conjugate, site not given here) [S7A, alanine variant of CTP, Cy5.5 conjugated]”: the “Corrected Median Cy5.5” value in the data set on H9C2 cells [1] (listed as S7A_001) is on record as 21208.1; in the data set with H9C2 cells [1] (listed as S7A_002), 23475.6; with H9C2 cells [1] (listed as S7A_003), 23755.1. For the same substance, the “Raw Median Cy5.5” value with H9C2 cells [1] (listed as S7A_001) is listed as 20184; in the data set with H9C2 cells [1] (listed as S7A_002), 22342; in the data set with H9C2 cells [1] (listed as S7A_003), 22608. The “Average Correction” value in the data set on H9C2 cells [1] was found to be 22813.0. Also, in the data set with H9C2 cells [3], the “% transduction of H9C2 Cells” value is 54.32%.
On to “APWHLSSQYSAT (also: Cy5.5 conjugate, site not given here) [R11A, alanine variant of CTP, Cy5.5 conjugated]”, for which the “Corrected Median Cy5.5” value was 10237.9 in the data set with H9C2 cells [1] (listed as R11A_001), 10010.7 in the data set on H9C2 cells [1] (listed as R11A_002) and 10518.6 in the data set on H9C2 cells [1] (listed as R11A_003). The entries for the “Raw Median Cy5.5” value in the data set on H9C2 cells [1] (listed as R11A_001), in the data set with H9C2 cells [1] (listed as R11A_002) and in the data set with H9C2 cells [1] (listed as R11A_003) were 9555, 9343 and 9817, respectively. In addition, the “Average Correction” value with H9C2 cells [1] was found to be 10255.7. In the data set on H9C2 cells [3], the “% transduction of H9C2 Cells” value was found to be 32.75%.
